According to PubChem BioAssay (NCI):
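Cultured in 96-well plates, cells were exposed to test compound for 48 hours across five concentrations. At the TGI there is no net growth.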

Experiments:
Experiment in all cases: growth of human tumour cells (NCI), 48 h
A549 NSCLC = system: A549 NSCLC
CAKI-1 renal = system: CAKI-1 renal
CCRF-CEM leukemia = system: CCRF-CEM leukemia
HCT-15 colon = system: HCT-15 colon
HT29 colon = system: HT29 colon
K-562 leukemia = system: K-562 leukemia
LOX IMVI melanoma = system: LOX IMVI melanoma
M14 melanoma = system: M14 melanoma
MDA-N = system: MDA-N
MOLT-4 leukemia = system: MOLT-4 leukemia
NCI-H460 lung = system: NCI-H460 lung
NCI/ADR-RES ovarian = system: NCI/ADR-RES ovarian
OVCAR-4 ovarian = system: OVCAR-4 ovarian
OVCAR-5 ovarian = system: OVCAR-5 ovarian
SN12C renal = system: SN12C renal
T-47D breast = system: T-47D breast
TK-10 renal = system: TK-10 renal
U251 CNS = system: U251 CNS
PC-3 prostate = system: PC-3 prostate

O=C(Sc1c(-c2ccccc2)c(=O)n(-c2ccccc2)c(=S)n1-c1ccccc1)c1ccc(Cl)cc1
TGI (A549 NSCLC): > 100 µM
TGI (CAKI-1 renal): > 100 µM
TGI (CCRF-CEM leukemia): > 100 µM
TGI (HCT-15 colon): > 100 µM
TGI (HT29 colon): > 100 µM
TGI (K-562 leukemia): > 100 µM
TGI (LOX IMVI melanoma): > 100 µM
TGI (M14 melanoma): > 100 µM
TGI (MDA-N): > 100 µM
TGI (MOLT-4 leukemia): > 100 µM
TGI (NCI-H460 lung): > 100 µM
TGI (NCI/ADR-RES ovarian): > 100 µM
TGI (OVCAR-4 ovarian): > 100 µM
TGI (OVCAR-5 ovarian): > 100 µM
TGI (SN12C renal): > 100 µM
TGI (T-47D breast): > 100 µM
TGI (TK-10 renal): > 100 µM
TGI (U251 CNS): > 100 µM

CC(C#N)c1cn(S(=O)(=O)c2ccccc2)c2ccccc12 (configuration not stated)
TGI (A549 NSCLC): > 100 µM
TGI (CAKI-1 renal): > 100 µM
TGI (CCRF-CEM leukemia): > 100 µM
TGI (HCT-15 colon): > 100 µM
TGI (HT29 colon): > 100 µM
TGI (K-562 leukemia): > 100 µM
TGI (M14 melanoma): > 100 µM
TGI (MOLT-4 leukemia): > 100 µM
TGI (NCI-H460 lung): > 100 µM
TGI (OVCAR-4 ovarian): > 100 µM
TGI (OVCAR-5 ovarian): > 100 µM
TGI (TK-10 renal): > 100 µM
TGI (U251 CNS): > 100 µM

Cc1ccc(S(=O)(=O)Nn2c(-c3ccccc3)c(C#N)c(-c3ccc(Cl)cc3)c(C#N)c2=O)cc1
TGI (A549 NSCLC): > 100 µM
TGI (CAKI-1 renal): > 100 µM
TGI (CCRF-CEM leukemia): 60.4 µM
TGI (HCT-15 colon): > 100 µM
TGI (K-562 leukemia): > 100 µM
TGI (LOX IMVI melanoma): 52.2 µM
TGI (M14 melanoma): 41.4 µM
TGI (MDA-N): > 100 µM
TGI (MOLT-4 leukemia): 52.8 µM
TGI (NCI-H460 lung): > 100 µM
TGI (OVCAR-4 ovarian): > 100 µM
TGI (OVCAR-5 ovarian): > 100 µM
TGI (PC-3 prostate): 98 µM
TGI (SN12C renal): > 100 µM
TGI (TK-10 renal): > 100 µM
TGI (U251 CNS): 55.1 µM

COc1ccc(-c2oc3c(CC(=O)O)cccc3c(=O)c2OC)cc1
TGI (A549 NSCLC): > 100 µM
TGI (CAKI-1 renal): 42.6 µM
TGI (CCRF-CEM leukemia): > 100 µM
TGI (HT29 colon): > 100 µM
TGI (K-562 leukemia): > 100 µM
TGI (M14 melanoma): > 100 µM
TGI (MDA-N): > 100 µM
TGI (MOLT-4 leukemia): > 100 µM
TGI (NCI/ADR-RES ovarian): > 100 µM
TGI (OVCAR-5 ovarian): > 100 µM
TGI (PC-3 prostate): > 100 µM
TGI (SN12C renal): > 100 µM
TGI (T-47D breast): > 100 µM
TGI (TK-10 renal): > 100 µM
TGI (U251 CNS): > 100 µM

Cc1ccc(SCC(OCn2cnc3c(N)ncnc32)[C@H](C)F)cc1 (some centres not stated)
TGI (A549 NSCLC): > 100 µM
TGI (CAKI-1 renal): > 100 µM
TGI (CCRF-CEM leukemia): > 100 µM
TGI (HCT-15 colon): > 100 µM
TGI (HT29 colon): > 100 µM
TGI (LOX IMVI melanoma): > 100 µM
TGI (M14 melanoma): > 100 µM
TGI (MOLT-4 leukemia): > 100 µM
TGI (NCI-H460 lung): > 100 µM
TGI (NCI/ADR-RES ovarian): > 100 µM
TGI (OVCAR-4 ovarian): > 100 µM
TGI (OVCAR-5 ovarian): > 100 µM
TGI (PC-3 prostate): > 100 µM
TGI (SN12C renal): > 100 µM
TGI (T-47D breast): > 100 µM
TGI (TK-10 renal): > 100 µM
TGI (U251 CNS): > 100 µM

O=C(O)C(Cc1ccc(O)cn1)NC(=O)C(F)(F)F (configuration not stated)
TGI (A549 NSCLC): > 100 µM
TGI (CAKI-1 renal): > 100 µM
TGI (CCRF-CEM leukemia): > 100 µM
TGI (HCT-15 colon): > 100 µM
TGI (HT29 colon): > 100 µM
TGI (K-562 leukemia): > 100 µM
TGI (LOX IMVI melanoma): > 100 µM
TGI (MDA-N): > 100 µM
TGI (NCI-H460 lung): > 100 µM
TGI (NCI/ADR-RES ovarian): > 100 µM
TGI (OVCAR-5 ovarian): > 100 µM
TGI (PC-3 prostate): > 100 µM
TGI (SN12C renal): > 100 µM
TGI (TK-10 renal): > 100 µM
TGI (U251 CNS): > 100 µM

CN1C(=O)n2c(nc3ccccc32)C(N=[N+]=[N-])(N=[N+]=[N-])C1=O (configuration not stated)
TGI (A549 NSCLC): > 100 µM
TGI (CAKI-1 renal): > 100 µM
TGI (CCRF-CEM leukemia): > 100 µM
TGI (HCT-15 colon): > 100 µM
TGI (HT29 colon): > 100 µM
TGI (K-562 leukemia): > 100 µM
TGI (LOX IMVI melanoma): > 100 µM
TGI (M14 melanoma): > 100 µM
TGI (MOLT-4 leukemia): > 100 µM
TGI (NCI-H460 lung): > 100 µM
TGI (OVCAR-4 ovarian): > 100 µM
TGI (OVCAR-5 ovarian): > 100 µM
TGI (TK-10 renal): > 100 µM
TGI (U251 CNS): > 100 µM

COc1ccccc1C1C2=C(COC2=O)OC(C)(C)Oc2cc3c(cc21)OCO3 (configuration not stated)
TGI (A549 NSCLC): > 100 µM
TGI (CAKI-1 renal): > 29.8 µM
TGI (CCRF-CEM leukemia): > 100 µM
TGI (HCT-15 colon): > 100 µM
TGI (HT29 colon): 17.3 µM
TGI (K-562 leukemia): 12.8 µM
TGI (LOX IMVI melanoma): > 44.2 µM
TGI (M14 melanoma): > 85.1 µM
TGI (MOLT-4 leukemia): > 100 µM
TGI (NCI-H460 lung): > 40.3 µM
TGI (NCI/ADR-RES ovarian): > 30.8 µM
TGI (OVCAR-4 ovarian): > 100 µM
TGI (OVCAR-5 ovarian): > 100 µM
TGI (PC-3 prostate): > 29.7 µM
TGI (SN12C renal): > 91.9 µM
TGI (T-47D breast): > 100 µM
TGI (TK-10 renal): > 28.8 µM
TGI (U251 CNS): > 89.3 µM

CC12CN(CC[N+](C)(C)C)CC1(C)C1CCC2O1 (configuration not stated)
TGI (A549 NSCLC): > 100 µM
TGI (CAKI-1 renal): > 100 µM
TGI (CCRF-CEM leukemia): > 100 µM
TGI (HCT-15 colon): > 100 µM
TGI (HT29 colon): > 100 µM
TGI (K-562 leukemia): > 100 µM
TGI (LOX IMVI melanoma): > 100 µM
TGI (M14 melanoma): > 100 µM
TGI (MOLT-4 leukemia): > 100 µM
TGI (NCI-H460 lung): > 100 µM
TGI (NCI/ADR-RES ovarian): > 100 µM
TGI (OVCAR-4 ovarian): > 100 µM
TGI (OVCAR-5 ovarian): > 100 µM
TGI (PC-3 prostate): > 100 µM
TGI (SN12C renal): > 100 µM
TGI (T-47D breast): > 100 µM
TGI (TK-10 renal): > 100 µM
TGI (U251 CNS): > 100 µM

Cc1ccc2c(c1)C(=O)/C(=C1/CCc3ccc(C)cc31)C2
TGI (A549 NSCLC): > 100 µM
TGI (CCRF-CEM leukemia): > 100 µM
TGI (HCT-15 colon): > 100 µM
TGI (HT29 colon): > 100 µM
TGI (K-562 leukemia): > 100 µM
TGI (LOX IMVI melanoma): > 100 µM
TGI (M14 melanoma): > 100 µM
TGI (MDA-N): > 100 µM
TGI (MOLT-4 leukemia): > 100 µM
TGI (NCI-H460 lung): > 100 µM
TGI (NCI/ADR-RES ovarian): > 100 µM
TGI (OVCAR-4 ovarian): > 100 µM
TGI (OVCAR-5 ovarian): > 100 µM
TGI (SN12C renal): > 100 µM
TGI (T-47D breast): > 100 µM
TGI (TK-10 renal): > 100 µM
TGI (U251 CNS): > 100 µM

CC(=O)O[C@H]1C(=O)[C@@]2(C)C(C(OC(=O)c3ccccc3)[C@]3(O)CC(OC(=O)C(O)C(NC(=O)c4ccccc4)c4ccc(F)cc4)C(C)=C1C3(C)C)[C@]1(OC(C)=O)CO[C@@H]1C[C@@H]2O (some centres not stated)
TGI (A549 NSCLC): > 10 µM
TGI (CAKI-1 renal): > 10 µM
TGI (CCRF-CEM leukemia): > 10 µM
TGI (HCT-15 colon): > 10 µM
TGI (HT29 colon): > 3.4 µM
TGI (K-562 leukemia): > 10 µM
TGI (LOX IMVI melanoma): > 10 µM
TGI (M14 melanoma): > 7.03 µM
TGI (MOLT-4 leukemia): 2.73 µM
TGI (NCI-H460 lung): > 10 µM
TGI (NCI/ADR-RES ovarian): > 4.04 µM
TGI (OVCAR-4 ovarian): > 10 µM
TGI (OVCAR-5 ovarian): > 7.89 µM
TGI (PC-3 prostate): > 10 µM
TGI (SN12C renal): > 10 µM
TGI (T-47D breast): > 10 µM
TGI (TK-10 renal): > 10 µM
TGI (U251 CNS): > 10 µM

COC(=O)c1cc(C)ccc1/C=C1\Cc2cc(C)c(C)cc2C1=O
TGI (A549 NSCLC): > 100 µM
TGI (CAKI-1 renal): > 100 µM
TGI (HCT-15 colon): > 100 µM
TGI (HT29 colon): > 100 µM
TGI (K-562 leukemia): > 100 µM
TGI (LOX IMVI melanoma): > 100 µM
TGI (M14 melanoma): > 100 µM
TGI (MDA-N): > 100 µM
TGI (MOLT-4 leukemia): > 100 µM
TGI (NCI-H460 lung): > 100 µM
TGI (OVCAR-4 ovarian): > 100 µM
TGI (OVCAR-5 ovarian): > 100 µM
TGI (PC-3 prostate): > 100 µM
TGI (SN12C renal): > 100 µM
TGI (T-47D breast): > 100 µM
TGI (TK-10 renal): > 100 µM

CCOC(=O)CSc1nc(-c2ccc(OC)cc2)c(C#N)c(=O)[nH]1
TGI (A549 NSCLC): > 100 µM
TGI (CAKI-1 renal): > 100 µM
TGI (CCRF-CEM leukemia): > 100 µM
TGI (HCT-15 colon): > 100 µM
TGI (HT29 colon): > 100 µM
TGI (K-562 leukemia): > 100 µM
TGI (M14 melanoma): > 100 µM
TGI (MOLT-4 leukemia): > 100 µM
TGI (NCI-H460 lung): > 100 µM
TGI (NCI/ADR-RES ovarian): > 100 µM
TGI (OVCAR-4 ovarian): > 100 µM
TGI (OVCAR-5 ovarian): > 100 µM
TGI (PC-3 prostate): > 100 µM
TGI (SN12C renal): > 100 µM
TGI (T-47D breast): > 100 µM
TGI (TK-10 renal): > 100 µM
TGI (U251 CNS): > 100 µM

CS(=O)(=O)c1nc(N)nc2nc[nH]c12
TGI (A549 NSCLC): > 100 µM
TGI (CAKI-1 renal): > 100 µM
TGI (CCRF-CEM leukemia): > 100 µM
TGI (HCT-15 colon): > 100 µM
TGI (HT29 colon): > 100 µM
TGI (K-562 leukemia): > 100 µM
TGI (LOX IMVI melanoma): > 100 µM
TGI (M14 melanoma): > 100 µM
TGI (MOLT-4 leukemia): > 100 µM
TGI (NCI-H460 lung): > 100 µM
TGI (OVCAR-4 ovarian): > 100 µM
TGI (OVCAR-5 ovarian): > 100 µM
TGI (SN12C renal): > 100 µM
TGI (TK-10 renal): > 100 µM
TGI (U251 CNS): > 100 µM
